Test results published in PMC11613437, “Prioritization of Eleven-Nineteen-Leukemia Inhibitors as Orally Available Drug Candidates for Acute Myeloid Leukemia” (Journal of Medicinal Chemistry, 2024).

How the values were obtained:
[1] = target: T1, ENL (Homo sapiens, UniProt Q03111); assay: Cellular thermal shift assay (CETSA); format: cell-based; conditions: MOLM-13 and MV4-11 cells, 10 μM, 3 and 6 h
T1 construct: CETSAs of ENL in MOLM-13 (top) and MV4-11 (bottom) cells; endogenous in cells; host or cells: MOLM-13 and MV4-11
T1 sequence (Q03111 1-559): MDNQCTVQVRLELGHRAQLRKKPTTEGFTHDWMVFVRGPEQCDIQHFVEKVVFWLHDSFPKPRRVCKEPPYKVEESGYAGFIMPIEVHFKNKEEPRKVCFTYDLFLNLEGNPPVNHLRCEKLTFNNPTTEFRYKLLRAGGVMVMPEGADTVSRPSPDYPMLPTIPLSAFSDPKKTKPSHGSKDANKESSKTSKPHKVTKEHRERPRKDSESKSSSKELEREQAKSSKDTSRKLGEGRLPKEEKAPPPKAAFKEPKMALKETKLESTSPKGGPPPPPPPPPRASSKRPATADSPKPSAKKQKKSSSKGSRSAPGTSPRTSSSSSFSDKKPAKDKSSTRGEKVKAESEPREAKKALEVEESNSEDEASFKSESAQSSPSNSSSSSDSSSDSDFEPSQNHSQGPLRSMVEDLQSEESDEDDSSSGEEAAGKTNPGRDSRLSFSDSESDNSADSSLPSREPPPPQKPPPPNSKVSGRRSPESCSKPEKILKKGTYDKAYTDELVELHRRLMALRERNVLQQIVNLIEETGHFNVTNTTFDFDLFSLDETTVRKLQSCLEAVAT
Procedure: MOLM-13 and MV4-11 were incubated with 10 μM of inhibitor 13 for 3 and 6 h, respectively. The cells were then collected and washed with PBS 3 times. The cell pellets were resuspended in PBS-containing protease inhibitors and aliquoted into PCR microtubes (approximately 3 million cells in 54 μL). Cells were heated at indicated temperatures for 3 min in a thermal cycler (Bio-Rad) and then incubated at room temperature for 2 min. A total of 6 μL of 10× cell lysis buffer (8% NP-40, 50% glycerol, and 10 mM dithiothreitol) was added to each sample before subjecting the sample to three freeze–thaw cycles by liquid nitrogen and 37 °C water bath incubations to lyse the cells. The cell lysates were centrifuged at 13,000 rpm at 4 °C for 10 min, and the supernatants were analyzed using SDS-PAGE and Western blotting.

[2] = target: T2, ENL YEATS domain (Homo sapiens, UniProt Q03111); assay: Biolayer interferometry (BLI); format: binding; conditions: biotinylated ENL YEATS on SSA biosensors, 1:1 model
T2 construct: Biotinylated-ENL YEATS was immobilized onto SSA biosensors; biotin (biotinylated)
T2 sequence (Q03111 1-138 limits assumed): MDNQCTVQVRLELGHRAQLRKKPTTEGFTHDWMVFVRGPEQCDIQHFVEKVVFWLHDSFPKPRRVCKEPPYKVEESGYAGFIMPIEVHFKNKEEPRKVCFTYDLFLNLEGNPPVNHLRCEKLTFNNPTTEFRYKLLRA
Procedure: Superstreptavidin biosensors were first incubated in an assay buffer (20 mM Tris, pH 7.8, 300 mM NaCl, 0.05% Tween 20, 0.1% DMSO) for 15 min. Sensors were coated with 40–60 μg/mL of biotinylated ENL for 15 min at room temperature. Inhibitors were serially diluted across a 96-well plate in a volume of 200 μL. Association of samples to either ENL- or uncoated reference sensors was measured over 300 s and dissociation over 300 s with baseline measurements (buffer only) for 300 s. All assays were run with continuous 1000 rpm shaking. Data were analyzed using the OctetRED data analysis software with reference subtraction in which reference uncoated sensors and reference samples were subtracted. Then, global kinetic fit was performed for all sonogram curves with a 1:1 model to get KD values.

[3] = tested on: MV4-11 cells; assay: Cell toxicity assay (CCK-8), MV4-11; format: cell-based; conditions: Homo sapiens, MV4-11; 72 h treatment (superscript a)
Procedure: (§1) Approximately 1 × 10^4 JURKAT, MOLM-13, MV4-11 and HEK293T cells in RPMI 1640 (no phenol red) (100 μL) were added to a 96-well plate and treated with DMSO or a compound at indicated concentrations for 72 h or 8 days. Cell viability was measured using the CCK-8 kit (Abcam, ab228554) according to the manufacturer’s instructions.

[4] = tested on: MOLM-13 cells; assay: Cell toxicity assay (CCK-8), MOLM-13; format: cell-based
Procedure: as §1

CC(C)[C@H]1CCN1Cc1cc2cnc(NC(=O)c3ccc4nncn4c3)cc2[nH]1 [SR-C-107 (R), (R)-N-(2-((2-Isopropylazetidin-1-yl)methyl)-1H-pyrrolo[3,2-c]pyridin-6-yl)-[1,2,4]triazolo[4,3-a]pyridine-6-carboxamide]
CETSA: thermal stability of ENL vs DMSO at elevated temperatures [1]: higher abundance of ENL
Kd [2]: 144 nM

CC(C)C1CCN1Cc1ccc(CNC(=O)c2ccc3nncn3c2)cc1 (stereo not drawn) [inhibitor 13]
CETSA: thermal stability of ENL vs DMSO at elevated temperatures [1]: higher abundance of ENL
CC50 [3]: 9.15 µM
IC50 ([4]; 8 day treatment, n = 3, read-out: CC50 MOLM-13 (Cellular IC50, 8-days incubation)): 6.01 ± 0.83 µM
CC50 ([4]; Homo sapiens, MOLM-13, 72 h treatment (superscript a)): 8.2 µM
